# Measurements: ChEMBL document CHEMBL4118117, “Synthesis, biological evaluation, and molecular docking investigation of benzhydrol- and indole-based dual PPAR-γ/FFAR1 agonists” (Bioorg Med Chem Lett, 2018)
# The source made the active and inactive calls. No cut-off for these calls is given here.
# Assays:
# [1] = target: Free fatty acid receptor 1 (Homo sapiens, UniProt O14842); assay: Transactivation of recombinant human FFAR1 expressed in CHOK1 cells co-expressing Galpha15 assessed as increase in calcium flux measured after 20 secs for 100 secs by FLIPR assay; format: functional, cell-based
# Chain of Free fatty acid receptor 1 (O14842 whole entry, the tested form may be a part): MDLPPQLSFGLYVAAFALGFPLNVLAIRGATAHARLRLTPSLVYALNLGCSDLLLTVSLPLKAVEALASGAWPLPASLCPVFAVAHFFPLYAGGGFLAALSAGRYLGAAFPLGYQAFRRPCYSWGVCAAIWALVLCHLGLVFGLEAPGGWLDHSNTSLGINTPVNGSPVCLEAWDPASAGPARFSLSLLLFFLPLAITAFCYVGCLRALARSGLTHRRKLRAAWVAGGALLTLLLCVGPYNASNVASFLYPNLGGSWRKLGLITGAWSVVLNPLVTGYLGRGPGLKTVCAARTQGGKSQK
# [2] = target: T1, Peroxisome proliferator-activated receptor gamma (Homo sapiens) (UniProt P37231); assay: Transactivation of recombinant human N-terminal GAL4-DBD fused PPARgamma LBD expressed in reporter cells at 30 uM measured after 24 hrs by luciferase reporter gene assay relative to rosiglitazone; format: cell-based
# T1 sequence (whole entry): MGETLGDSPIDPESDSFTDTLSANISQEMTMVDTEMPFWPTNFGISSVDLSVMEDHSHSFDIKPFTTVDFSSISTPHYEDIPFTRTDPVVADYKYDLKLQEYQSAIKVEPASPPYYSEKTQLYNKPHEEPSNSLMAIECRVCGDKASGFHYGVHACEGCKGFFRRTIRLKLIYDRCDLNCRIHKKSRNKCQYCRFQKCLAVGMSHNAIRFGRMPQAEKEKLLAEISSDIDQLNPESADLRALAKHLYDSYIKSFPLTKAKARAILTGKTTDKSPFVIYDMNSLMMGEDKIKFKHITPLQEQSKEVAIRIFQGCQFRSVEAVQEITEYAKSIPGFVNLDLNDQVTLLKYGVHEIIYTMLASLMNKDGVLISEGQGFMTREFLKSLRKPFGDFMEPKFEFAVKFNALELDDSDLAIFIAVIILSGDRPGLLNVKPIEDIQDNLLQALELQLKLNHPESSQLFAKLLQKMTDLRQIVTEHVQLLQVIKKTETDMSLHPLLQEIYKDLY
# [3] = tested on: Mus musculus; assay: Antihyperglycemic activity in established high fat diet-induced obese mouse assessed as reduction in blood glucose level at 10 mg/kg, iv administered once daily for 14 days measured at 1 hr post dose on day 7 and 14 during compound dosing in presence of rosiglitazone; format: functional, organism-based
# [4] = tested on: Mus musculus; assay: Antihyperglycemic activity in established high fat diet-induced obese mouse assessed as reduction in body weight at 10 mg/kg, iv administered once daily for 14 days; format: functional, organism-based
# [5] = target: T2, Peroxisome proliferator-activated receptor gamma (Homo sapiens, UniProt P37231); assay: Transactivation of recombinant human N-terminal GAL4-DBD fused PPARgamma LBD expressed in reporter cells measured after 24 hrs by luciferase reporter gene assay; format: cell-based
# T2 sequence (P37231 whole entry): T1 sequence (whole entry)
# [6] = target: T1, Peroxisome proliferator-activated receptor gamma (Homo sapiens); assay: Transactivation of recombinant human N-terminal GAL4-DBD fused PPARgamma LBD expressed in reporter cells at 30 uM measured after 24 hrs by luciferase reporter gene assay relative to control; format: cell-based
# [7] = tested on: Mus musculus; assay: Antihyperlipidemic activity in established high fat diet-induced obese mouse assessed as reduction in plasma triglyceride level at 10 mg/kg, iv administered once daily for 14 days measured at 1 hr post dose on day 7 and 14 during compound dosing by colorimetric method relative to rosiglitazone; format: functional
# [8] = tested on: Mus musculus; assay: Antihyperglycemic activity in established high fat diet-induced obese mouse assessed as reduction in blood glucose level at 10 mg/kg, iv administered once daily for 14 days measured at 1 hr post dose on day 7 and 14 during compound dosing; format: functional, organism-based
# [9] = tested on: Mus musculus; assay: Antihyperglycemic activity in established high fat diet-induced obese mouse assessed as reduction in blood glucose level at 10 mg/kg, iv administered once daily for 14 days measured at 1 hr post dose on day 7 and 14 during compound dosing relative to rosiglitazone; format: functional
# [10] = tested on: Mus musculus; assay: Antihyperglycemic activity in established high fat diet-induced obese mouse assessed as reduction in blood glucose level at 10 mg/kg, iv administered once daily for 14 days measured at 1 hr post dose on day 7 and 14 during compound dosing in presence of glimepride; format: functional, organism-based
Compound,EC50 [1],Activity [2],fold change (FC) [6],EC50 ([1]; read-out: EC50) [µM],also measured
O=C1NC(=O)C(Cc2ccc(OCCn3c(-c4ccccc4)cc4ccccc43)cc2)S1 (stereo not drawn),Not Active,34.9%,,,
CCC1=C(C)CN(C(=O)NCCc2ccc(S(=O)(=O)NC(=O)N[C@H]3CC[C@H](C)CC3)cc2)C1=O,,,,,Activity [3]: Active; Activity [4]: Active
O=C1NC(=O)C(Cc2ccc(OCCn3cnc4ccccc43)cc2)S1 (stereo not drawn),,69.8%,29.7,4.31,EC50 [5]: 2.32 µM
Cc1ccccc1C(OCCOc1ccc(CC2SC(=O)NC2=O)cc1)c1ccccc1 (stereo not drawn),Not Active,4.4%,,,
O=C1NC(=O)C(Cc2ccc(OCCOC(c3ccccc3)c3ccc(Cl)cc3)cc2)S1 (stereo not drawn),Not Active,10.7%,,,
COc1ccc(C(OCCOc2ccc(CC3SC(=O)NC3=O)cc2)c2ccccc2)cc1 (stereo not drawn),,12.1%,,17.8,fold change (FC) [7]: 5.5; Activity [8]: Active
O=C1NC(=O)C(Cc2ccc(OCCOC(c3ccccc3)c3ccc(C(F)(F)F)cc3)cc2)S1 (stereo not drawn),,inactive,> 0.01,11.3,
O=C1NC(=O)C(Cc2ccc(OCCn3c(CO)nc4ccccc43)cc2)S1 (stereo not drawn),Not Active,39.5%,,,
CCCCC/C=C/C/C=C/C/C=C/CCCCC(=O)O,,,,0.24,
O=C1NC(=O)C(Cc2ccc(OCCOC(c3ccccc3)c3ccccc3)cc2)S1 (stereo not drawn),,9.3%,4,21.3,Activity [8]: Active
O=C1NC(=O)C(Cc2ccc(OCCn3ccc4ccc(Cl)cc43)cc2)S1 (stereo not drawn),,83.7%,,5.06,EC50 [5]: 4.51 µM; fold change (FC) [7]: 3.5; fold change (FC) [9]: 6; Activity [4]: Active; Activity [8]: Active
CN(CCOc1ccc(CC2SC(=O)NC2=O)cc1)c1ccccn1 (stereo not drawn),,,43.1,,Activity [10]: Active; Activity [4]: Active
O=C1NC(=O)C(Cc2ccc(OCCn3ccc4ccccc43)cc2)S1 (stereo not drawn),,130%,56.1,2.19,EC50 [5]: 3.94 µM; Activity [8]: Active
O=C1NC(=O)C(Cc2ccc(OCCOc3cccc4ccccc34)cc2)S1 (stereo not drawn),Not Active,13.3%,,,
